Measured values: BigSolDB 2.1

With `Nc1cccc2ccccc12` the solubility (mole fraction) (in acetone, 273.15 K) was 0.552, the solubility (mole fraction) (in acetone, 278.15 K) was 0.59 and the solubility (mole fraction) (in acetone, 283.15 K) was 0.636. The solubility (mole fraction) (in acetone, 288.15 K) was 0.684, the solubility (mole fraction) (in acetone, 293.15 K) was 0.724 and the solubility (mole fraction) (in acetone, 298.15 K) was 0.778. The solubility (mole fraction) (in acetone, 303.15 K) was 0.839, the solubility (mole fraction) (in acetone, 308.15 K) was 0.898 and the solubility (mole fraction) (in acetonitrile, 273.15 K) was 0.527. For the same compound, the solubility (mole fraction) (in acetonitrile, 278.15 K) was 0.572, the solubility (mole fraction) (in acetonitrile, 283.15 K) was 0.619 and the solubility (mole fraction) (in acetonitrile, 288.15 K) was 0.658. It also gave a solubility (mole fraction) (in acetonitrile, 293.15 K) of 0.708, a solubility (mole fraction) (in acetonitrile, 298.15 K) of 0.766 and a solubility (mole fraction) (in acetonitrile, 303.15 K) of 0.829. For the same compound, the solubility (mole fraction) (in acetonitrile, 308.15 K) was 0.878, the solubility (mole fraction) (in cyclohexane, 278.15 K) was 0.00758 and the solubility (mole fraction) (in cyclohexane, 283.15 K) was 0.00992. For the same compound, the solubility (mole fraction) (in cyclohexane, 288.15 K) was 0.014, the solubility (mole fraction) (in cyclohexane, 293.15 K) was 0.0185 and the solubility (mole fraction) (in cyclohexane, 298.15 K) was 0.0263. For the same compound, the solubility (mole fraction) (in cyclohexane, 303.15 K) was 0.0364, the solubility (mole fraction) (in cyclohexane, 308.15 K) was 0.0621 and the solubility (mole fraction) (in ethanol, 273.15 K) was 0.133. It also gave a solubility (mole fraction) (in ethanol, 278.15 K) of 0.176, a solubility (mole fraction) (in ethanol, 283.15 K) of 0.231 and a solubility (mole fraction) (in ethanol, 288.15 K) of 0.323. It also gave a solubility (mole fraction) (in ethanol, 293.15 K) of 0.431, a solubility (mole fraction) (in ethanol, 298.15 K) of 0.555 and a solubility (mole fraction) (in ethanol, 303.15 K) of 0.698. For the same compound, the solubility (mole fraction) (in ethanol, 308.15 K) was 0.833, the solubility (mole fraction) (in ethyl acetate, 273.15 K) was 0.49 and the solubility (mole fraction) (in ethyl acetate, 278.15 K) was 0.528. For the same compound, the solubility (mole fraction) (in ethyl acetate, 283.15 K) was 0.57, the solubility (mole fraction) (in ethyl acetate, 288.15 K) was 0.611 and the solubility (mole fraction) (in ethyl acetate, 293.15 K) was 0.66. For the same compound, the solubility (mole fraction) (in ethyl acetate, 298.15 K) was 0.728, the solubility (mole fraction) (in ethyl acetate, 303.15 K) was 0.788 and the solubility (mole fraction) (in ethyl acetate, 308.15 K) was 0.863. The solubility (mole fraction) (in isobutanol, 273.15 K) was 0.0584, the solubility (mole fraction) (in isobutanol, 278.15 K) was 0.0819 and the solubility (mole fraction) (in isobutanol, 283.15 K) was 0.118. It also gave a solubility (mole fraction) (in isobutanol, 288.15 K) of 0.157, a solubility (mole fraction) (in isobutanol, 293.15 K) of 0.251 and a solubility (mole fraction) (in isobutanol, 298.15 K) of 0.382. For the same compound, the solubility (mole fraction) (in isobutanol, 303.15 K) was 0.585, the solubility (mole fraction) (in isobutanol, 308.15 K) was 0.841 and the solubility (mole fraction) (in isopropanol, 273.15 K) was 0.0524. The solubility (mole fraction) (in isopropanol, 278.15 K) was 0.0814, the solubility (mole fraction) (in isopropanol, 283.15 K) was 0.123 and the solubility (mole fraction) (in isopropanol, 288.15 K) was 0.198. For the same compound, the solubility (mole fraction) (in isopropanol, 293.15 K) was 0.294, the solubility (mole fraction) (in isopropanol, 298.15 K) was 0.461 and the solubility (mole fraction) (in isopropanol, 303.15 K) was 0.637. It also gave a solubility (mole fraction) (in isopropanol, 308.15 K) of 0.845, a solubility (mole fraction) (in methanol, 273.15 K) of 0.192 and a solubility (mole fraction) (in methanol, 278.15 K) of 0.245. The solubility (mole fraction) (in methanol, 283.15 K) was 0.296, the solubility (mole fraction) (in methanol, 288.15 K) was 0.375 and the solubility (mole fraction) (in methanol, 293.15 K) was 0.477. It also gave a solubility (mole fraction) (in methanol, 298.15 K) of 0.591, a solubility (mole fraction) (in methanol, 303.15 K) of 0.703 and a solubility (mole fraction) (in methanol, 308.15 K) of 0.845. It also gave a solubility (mole fraction) (in n-butanol, 273.15 K) of 0.112, a solubility (mole fraction) (in n-butanol, 278.15 K) of 0.145 and a solubility (mole fraction) (in n-butanol, 283.15 K) of 0.194. For the same compound, the solubility (mole fraction) (in n-butanol, 288.15 K) was 0.247, the solubility (mole fraction) (in n-butanol, 293.15 K) was 0.353 and the solubility (mole fraction) (in n-butanol, 298.15 K) was 0.487. The solubility (mole fraction) (in n-butanol, 303.15 K) was 0.664, the solubility (mole fraction) (in n-butanol, 308.15 K) was 0.84 and the solubility (mole fraction) (in n-butyl acetate, 273.15 K) was 0.441. For the same compound, the solubility (mole fraction) (in n-butyl acetate, 278.15 K) was 0.485, the solubility (mole fraction) (in n-butyl acetate, 283.15 K) was 0.532 and the solubility (mole fraction) (in n-butyl acetate, 288.15 K) was 0.585. For the same compound, the solubility (mole fraction) (in n-butyl acetate, 293.15 K) was 0.645, the solubility (mole fraction) (in n-butyl acetate, 298.15 K) was 0.706 and the solubility (mole fraction) (in n-butyl acetate, 303.15 K) was 0.777. It also gave a solubility (mole fraction) (in n-butyl acetate, 308.15 K) of 0.849, a solubility (mole fraction) (in n-heptane, 273.15 K) of 0.00549 and a solubility (mole fraction) (in n-heptane, 278.15 K) of 0.0073. It also gave a solubility (mole fraction) (in n-heptane, 283.15 K) of 0.00879, a solubility (mole fraction) (in n-heptane, 288.15 K) of 0.0115 and a solubility (mole fraction) (in n-heptane, 293.15 K) of 0.0155. The solubility (mole fraction) (in n-heptane, 298.15 K) was 0.0205, the solubility (mole fraction) (in n-heptane, 303.15 K) was 0.026 and the solubility (mole fraction) (in n-heptane, 308.15 K) was 0.0346. The solubility (mole fraction) (in n-propanol, 273.15 K) was 0.0925, the solubility (mole fraction) (in n-propanol, 278.15 K) was 0.133 and the solubility (mole fraction) (in n-propanol, 283.15 K) was 0.181. The solubility (mole fraction) (in n-propanol, 288.15 K) was 0.256, the solubility (mole fraction) (in n-propanol, 293.15 K) was 0.365 and the solubility (mole fraction) (in n-propanol, 298.15 K) was 0.512. It also gave a solubility (mole fraction) (in n-propanol, 303.15 K) of 0.669 and a solubility (mole fraction) (in n-propanol, 308.15 K) of 0.838.
